From patent publication US9433593B1, “Composition for anti-inflammation containing 5-adamantan-1-yl-N-(2,4-dihydroxy-benzyl)-2,4-dimethoxy-benzamide” (Amorepacific Corporation, priority 2015, dated 2016)

Key:
[1] = test system: PGE2 production in RAW 264.7 cells; test: PGE2 production in LPS-treated cells (EIA kit); assay type: cell-based, murine; details: 0-30 μM for 30 minutes, then LPS (1 μg/mL) 6 hours, vs group treated only with LPS
Experimental: (§1) RAW 264.7 cells (murine macrophage cell line) (ATCC, Rockville, Md., USA) and HEK 293 cells were cultured in RPMI 1640 medium supplemented with FBS (10% heat-inactivated fetal bovine serum; Gibco, Grand Island, N.Y., USA), glutamine and antibiotics (penicillin and streptomycin) at 37° C. under 5% CO2.
(§2) RAW 264.7 cells (1×10^6 cells/well) that had been preincubated for 18 hours were treated with 5-adamantan-1-yl-N-(2,4-dihydroxybenzyl)-2,4-dimethoxybenzamide (hereinafter, ‘AP736’) at concentrations of 0-30 μM for 30 minutes and then incubated for 6 hours or 24 hours with LPS (1 μg/mL). The supernatant was recovered after the incubation. The cells incubated for 6 hours were subjected to PGE2 analysis and those incubated for 24 hours were subjected to NO analysis. The NO concentration in the culture medium was measured by the Griess test (Promega, Madison, Wis., USA). And, the concentration of PGE2 released to the culture medium was measured using an EIA kit (Amersham, Little Chalfont, Buckinghamshire, UK).

IL-1β = test: LPS-induced IL-1β expression (RT-PCR); assay type: cell-based, murine; details: RAW 264.7 cells, pretreated at different concentrations, LPS 4 hours
Experimental: (§3) The expression level of iNOS, COX-2 and IL-1β which are known as inflammation-inducing factors was measured.
(§4) In order to investigate the effect of 5-adamantan-1-yl-N-(2,4-dihydroxybenzyl)-2,4-dimethoxybenzamide on inhibition of iNOS, COX-2 and IL-1β expression in RAW 264.7 cells, the cells were pretreated with 5-adamantan-1-yl-N-(2,4-dihydroxybenzyl)-2,4-dimethoxybenzamide at different concentrations and then RT-PCR was conducted after treating with LPS for 4 hours.

NF-κB = NF-κB luciferase reporter gene assay; assay type: cell-based; details: HEK 293 cells, NF-κB-Luc, MyD88 or TRIF cotransfected, 8 hours
Experimental: as §1
(§5) The activity of transcription factors can be tested by the luciferase reporter gene assay. It is known that the activity of NF-κB and AP-1 is induced by the TLR adapter protein. NF-κB and AP-1 are known to produce the inflammatory factors NO and PGE2.
(§6) HEK 293 cells (1×10^6 cells/well) were cotransfected with 1 μg of a plasmid containing NF-κB-Luc (luciferase) and AP-1-Luc constructs. The transfection was conducted on a 12-well plate by the PEI method. After 48 hours, the transformed cells were used for experiment. MyD88 or TRIF (1 μg/mL each), which are known as TLR adapter proteins, were cotransfected for 8 hours together with 5-adamantan-1-yl-N-(2,4-dihydroxybenzyl)-2,4-dimethoxybenzamide (5-adamantan-1-yl-N-(2,4-dihydroxybenzyl)-2,4-dimethoxybenzamide is denoted as ‘AP736’ in FIG. 5). The luciferase reporter gene assay was performed using the luciferase assay system (Promega, Madison, Wis.).

RAW 264.7 cells = test: Cytotoxicity by MTT method; assay type: cell-based
Experimental: as §1
In all experiments, the cells were detached with a cell scraper. When the cells were cultured to a density of 2×10^6 cells/mL, the ratio of dead cells was 1% or lower (determined by the trypan blue dye exclusion method)
During subculturing, RAW 264.7 cells were plated on a well plate to a concentration of 1×10^6 cells/well. After culturing for 18 hours, the cells were treated with 5-adamantan-1-yl-N-(2,4-dihydroxybenzyl)-2,4-dimethoxybenzamide (denoted as ‘AP736’ in FIG. 1) at concentrations of 0-30 μM. Then, the cells were cultured in an incubator for 8 hours or 24 hours. Cytotoxicity was evaluated by the commonly used MTT method. 3 hours before the last culturing, 10 μL of an MTT (3-[4,5-dimethylthiazol-2-yl]-2,5-diphenyltetrazolium bromide) solution (10 mg/mL in phosphate-buffered saline, pH 7.4) was added to each well. After terminating reaction by adding 15% SDS (sodium dodecyl sulfate) to each well, the formed formazan crystals were dissolved. Then, absorbance was measured at 570 nm on a microplate reader.

COX-2 = test: LPS-induced COX-2 expression (RT-PCR); assay type: cell-based, murine; details: RAW 264.7 cells, pretreated at different concentrations, LPS 4 hours
Experimental: as §3, §4

AP-1 = AP-1 luciferase reporter gene assay; assay type: cell-based; details: HEK 293 cells, AP-1-Luc, MyD88 or TRIF cotransfected, 8 hours
Experimental: as §1, §5, §6

[2] = test system: NO production in RAW 264.7 cells; test: NO production in LPS-treated cells (Griess test); assay type: cell-based, murine; details: 0-30 μM for 30 minutes, then LPS (1 μg/mL) 24 hours, vs group treated only with LPS
Experimental: as §1, §2

iNOS = test: LPS-induced iNOS expression (RT-PCR); assay type: cell-based, murine; details: RAW 264.7 cells, pretreated at different concentrations, LPS 4 hours
Experimental: as §3, §4

COc1cc(OC)c(C23CC4CC(CC(C4)C2)C3)cc1C(=O)NCc1ccc(O)cc1O [5-adamantan-1-yl-N-(2,4-dihydroxybenzyl)-2,4-dimethoxybenzamide]
concentration of PGE2 [1]: decreased as compared to the group treated only with LPS with increasing concentration | expression of the mRNAs and proteins of IL-1β induced by LPS (IL-1β): distinctly inhibited | activity of NF-κB (NF-κB): decreased activity | cell viability (RAW 264.7 cells; 10 μM, treated for 8 hours): 100% | cell viability (RAW 264.7 cells; 10 μM, treated for 24 hours): 100% | cell viability (RAW 264.7 cells; 20 μM, treated for 8 hours): 100% | cell viability (RAW 264.7 cells; 20 μM, treated for 24 hours): 100% | cell viability (RAW 264.7 cells; 30 μM, cultured for 24 hours): ~80% | expression of the mRNAs and proteins of COX-2 induced by LPS (COX-2): distinctly inhibited | activity of AP-1 (AP-1): decreased activity | NO production [2]: statistically significant decrease in NO production with increasing concentration | expression of the mRNAs and proteins of iNOS induced by LPS (iNOS): distinctly inhibited
